Source: patent US7217557B1, “Three-dimensional structure of polyketide synthases” (The Salk Institute for Biological Studies, priority 1999, dated 2007)
Entries after “also recorded” stand apart in the source; their conditions may differ.

Columns and labels:
[1] = TLC-based radiometric assay of product formation by 2-PS, CHS and CHS mutants; format: biochemical; settings: for polyketide product formed: TLC, triple mutant and 2-PS confirmed by LC/MS; for starter molecule accepted: p-coumaroyl-CoA or acetyl-CoA as starter
Description: Comparison of the initiation/elongation cavities of 2-PS and CHS reveal four amino acid differences. In 2-PS, Leu202, Met259, Leu261, and Ile343 replace Thr197, Ile254, Gly256, and Ser338, respectively, of CHS. These four substitutions reduce cavity volume from 923 Å^3 in CHS to 274 Å^3 in 2-PS. A model of methylpyrone in the 2-PS cavity, based on the position of acetoacetyl-CoA, emphasizes the volume change compared to the CHS-naringenin complex (Accession No. 1CGK). Leu202 and Ile343 occlude the portion of the 2-PS cavity corresponding to the coumaroyl-binding site of CHS. Replacement of Gly256 in CHS by Leu261 in 2-PS severely reduces the size of the active site cavity. Substitution of Met259 in 2-PS for Ile254 in CHS produces a modest alteration in cavity volume. To examine the functional importance of these amino acid differences, the initiation/elongation cavity of CHS was altered by mutagenesis to resemble that of 2-PS. The resulting mutant proteins were screened for activity using either p-coumaroyl-CoA or acetyl-CoA as starter molecules. Activities of 2-PS, CHS, and the CHS mutants were determined by monitoring product formation using a TLC-based radiometric assay. Assay conditions were 100 mM Hepes (pH 7.0), 30 μM starter-CoA (either p-coumaroyl-CoA or acetyl-CoA), and 60 μM [^14C]-malonyl-CoA (50,000 cpm) in 100 μl at 25° C. Reactions were quenched with 5% acetic acid, extracted with ethyl acetate, and applied to TLC plates and developed. Due to the spontaneous cyclization of chalcone into the flavanone naringenin, activities of CHS are referenced to naringenin formation.
The x-ray crystal structures of 2-PS and CHS imply that the size of the active site cavity limits polyketide length and modulates folding of the polyketide chain. […] Since the T197L, G256L, and S338I mutants altered product formation, a CHS triple mutant was generated. […] LC/MS/MS analysis was performed by the Mass Spectroscopy facility of the Scripps Research Institute. Scaled-up assays (2 ml reaction volume) with the CHS T197L/G256L/S338I mutant and 2-PS were performed. Extracts were analyzed on a Hewlett-Packard HP1100 MSD single quadrupole mass spectrometer coupled to a ZorbaxSB-C18 column (5 μm, 2.1 mm×150 mm). HPLC conditions were as follows: gradient system from 0 to 100% methanol in water (each containing 0.2% acetic acid) within 10 min; flow rate 0.25 ml min^−1. LC/MS/MS data from both reactions were identical: 6-methyl-4-hydroxy-2pyrone, Rt=5.068 min; [M-H]^−125 (41); [M-H—CO2]^−[…] (100). The numbers show m/z values with relative intensities in parenthesis. The observed fragmentation matches previously published data.

CHS = settings: covalently modifies Cys164; Lanz et al. 1991; cited from earlier work
[2] = Functional assay of malonyl-CoA decarboxylation by the C164S mutant; format: biochemical; settings: determined crystallographically and confirmed by a functional assay
Description: Asn336 appears to play a crucial role in the decarboxylation reaction. […] In the hexanoyl-CoA complex, the side chain amide of Asn336 provides a hydrogen bond to the carbonyl oxygen of the thioester. This interaction would stabilize the enolate anion resulting from decarboxylation of malonyl-CoA (see FIG. 6). At the same time, the lack of formal positive charge at Asn336 may preserve the partial carbanion character of this resonance-stabilized anion, and thus the nucleophilicity of the carbanion form.

[3] = 30 μM starter-CoA, 60 μM [14C]-malonyl-CoA, pH 7.0, 25° C.

**Q.** For S338I: CHS mutant S338I of SEQ ID NO:1, which “preference for p-coumaroyl-CoA versus acetyl-CoA as starter molecule” value [1, 3] is on record?
**A.** The value was 3 fold.

**Q.** And the polyketide product formed [1]?
**A.** Its polyketide product formed is “do not form chalcone; also recorded: form a distinct product”.

**Q.** For T197L: CHS mutant T197L of SEQ ID NO:1, which “preference for p-coumaroyl-CoA versus acetyl-CoA as starter molecule” value [1, 3] is on record?
**A.** Its value is 10 fold.

**Q.** And the polyketide product formed [1]?
**A.** The polyketide product formed was “do not form chalcone; also recorded: form a distinct product”.

**Q.** With G256L: CHS mutant G256L of SEQ ID NO:1 as the molecule, how does the “preference for acetyl-CoA over coumaroyl-CoA as starter molecule” value [1, 3] read?
**A.** The value was 3 fold.

**Q.** And the polyketide product formed [1]?
**A.** Its polyketide product formed is “do not form chalcone”.

**Q.** Which “inhibition of CHS” value (CHS) does the source give for `C/C=C/C/C=C/CCC(=O)[C@H]1O[C@H]1C(N)=O` [Cerulenin] here?
**A.** Its value is “potent irreversible inhibitor”.

**Q.** What does the source list for “2-PS: 2-Pyrone synthase from Gerbera hybrida, expressed in E. coli”?
**A.** polyketide product formed [1]: produces the triketide methylpyrone; starter molecule accepted [1]: accepts acetyl-CoA but does not use p-coumaroyl-CoA

**Q.** Which results are given for “CHS I254M: CHS mutant I254M of SEQ ID NO:1”?
**A.** specific activity compared with wild-type enzyme [1]: functionally comparable to wild-type enzyme with a modest reduction in specific activity; polyketide product formed [1]: yields chalcone

**Q.** What does the source list for “T197L/G256L/S338I: CHS triple mutant with active site sterically analogous to 2-pyrone synthase”?
**A.** polyketide product formed [1]: produces only methylpyrone; starter molecule accepted [1]: only accepts acetyl-CoA (or malonyl-CoA)

B1: C164S: CHS mutant C164S of SEQ ID NO:1 (protein, UniProt P30074 1-389, looked up, variant C164S)
Chalcone synthase 2: MVSVSEIRKAQRAEGPATILAIGTANPANCVEQSTYPDFYFKITNSEHKTELKEKFQRMCDKSMIKRRYMYLTEEILKENPNVCEYMAPSLDARQDMVVVEVPRLGKEAAVKAIKEWGQPKSKITHLIVCTTSGVDMPGADYQLTKLLGLRPYVKRYMMYQQGSFAGGTVLRLAKDLAENNKGARVLVVCSEVTAVTFRGPSDTHLDSLVGQALFGDGAAALIVGSDPVPEIEKPIFEMVWTAQTIAPDSEGAIDGHLREAGLTFHLLKDVPGIVSKNITKALVEAFEPLGISDYNSIFWIAHPGGPAILDQVEQKLALKPEKMNATREVLSEYGNMSSACVLFILDEMRKKSTQNGLKTTGEGLEWGVLFGFGPGLTIETVVLRSVAI
**Q.** Which “decarboxylation of malonyl-CoA / residual catalytic activity” value [2] does the source give for B1 here?
**A.** Its value is “retains limited catalytic activity; also recorded: produces acetyl-CoA”.
